Data as given in US20180280435A1, “T CELL DELIVERY OF MDA-7/IL-24 TO IMPROVE THERAPEUTIC ERADICATION OF CANCER AND GENERATE PROTECTIVE ANTITUMOR IMMUNITY” (VIRGINIA COMMONWEALTH UNIVERSITY, priority 2015, published 2018).

B1: MDA-7/IL-24 protein: Melanoma differentiation associated gene-7/Interleukin-24, secreted protein of the IL-10 family (protein)
chain: QEFHFGPCQVKGVVPQKLWEAFWAVKDTMQAQDNITSARLLQQEVLQNVSDAESCYLVHTLLEFYLKTVFKNYHNRTVEVRTLKSFSTLANNFVLIVSQLQPSQENEMFSIRDSAHRRFLLFRRAFKQLDVEAALTKALGEVDILLTWMQKFYKL

Experiments:
CD11b+Gr-1+MDSCs = experiment: MDSC frequency after MCL-1 inhibitor in tumor-bearing mice (FACS); assay type: in vivo
Procedure: FIG. 6. Potential immune modulation by MCL-1 inhibition. MCL-1 inhibitor reduces MDSCs in tumor-bearing mice. Tumor-bearing mice received BI-97C1 (Sabutoclax) (5 mg/kg or 20 mg/kg) i.p. or left untreated. 24 h later, splenic CD11b+GR-1+MDSCs were assessed by FACS.
Reduction of MDSCs could be explained by the direct cytotoxic effect of BI-97C1 (Sabutoclax), due to its ability to abrogate Bcl-2 protein functions.

CD8+ T cells = experiment: T cell proliferation, 3H-thymidine (TdR) incorporation after anti-CD3/CD28 stimulation; assay type: cell-based; settings: 20 ng/ml protein
Procedure: (§1) A. CD8+ T cells were stimulated with anti-CD3/CD28 antibodies in the presence or absence of purified MDA-7/IL-24 protein (20 ng/ml). Cell proliferation was measured using 3H-thymidine (TdR) incorporation assays. P<0.05. B. C57BL/6 mice were injected i.v. with MDA-7/IL-24 protein (10 μg) or PBS. 48 h later, lymph node cells were assessed for IFN-γ-producing CD8+ T cells by intracellular staining.
(§2) The clinical application of immunotherapy is limited by the escape mechanisms cancer cells employ to avoid immune destruction due to immunoediting (e.g., selection of non-immunogenic or antigen loss cancer cell variants) and other immunosuppressive mechanisms at the tumor site. Since cancer-specific toxicity of MDA-7/IL-24 is antigen-independent, the delivery of a cancer-suicide agent in combination with T-cells may overcome the acquired tumor resistance to T-cell therapy. Intriguingly, MDA-7/IL-24 protein enhanced the proliferation of T cells upon TCR ligation (FIG. 8A). Treatment of mice with recombinant MDA-7/IL-24 protein increased the frequency of IFN-γ-expressing CD8+ T cells (FIG. 8B), supporting a role of MDA-7/IL-24 as a pro-Th 1 cytokine.

[1] = system: IFN-γ-producing CD8+ T cells; experiment: IFN-γ-producing CD8+ T cells in lymph nodes after i.v. protein (intracellular staining); assay type: in vivo, C57BL/6 mice; settings: 10 μg i.v., 48 h later, lymph node cells
Procedure: as §1, §2

Molecule	frequency of CD11b+Gr-1+MDSCs (CD11b+Gr-1+MDSCs; single administration i.p. (5 mg/kg or 20 mg/kg), splenic MDSCs 24 h later)	toxicity (CD11b+Gr-1+MDSCs; single administration in tumor-bearing mice)	proliferation of T cells upon TCR ligation (CD8+ T cells)	frequency of IFN-γ-expressing CD8+ T cells [1]
Cc1cc2c(C(=O)NC[C@H](C)c3ccccc3)c(O)c(O)cc2c(O)c1-c1c(C)cc2c(C(=O)NC[C@H](C)c3ccccc3)c(O)c(O)cc2c1O [BI-97C1, Sabutoclax]	substantially reduced	without inducing toxicity		
B1			enhanced	increased
